Results as given in PubChem BioAssay AID1626 (SRMLSC, 2009).

Test system: M. tuberculosis H37Rv growth inhibition
Assay: M. tuberculosis H37Rv growth inhibitors, H37Rv strain (AID 1626)
Settings: for IC90: measured here: IC90 against H37Rv; for CC50: measured here: Vero cell cytotoxicity

Structure (SMILES) | IC50 | IC90 | CC50
O=C(Nc1nnc(-c2cccnc2)o1)c1cccc(Cl)c1 | 3.27 µM | > 100 µM | 33.7 µM
c1ccc(Oc2nc(-c3ccccn3)nc3ccccc23)cc1 | 2.71 µM | 13.8 µM | > 40 µM
c1ccc(-c2cc(-c3ccncc3)nc3ccc4ccccc4c23)cc1 |  |  | > 40 µM
CCOCC(=O)Nc1ccc(Br)c(C)c1 | 9.8 µM | > 100 µM | 
O=C(Oc1cccc(-c2cnc3ccccc3n2)c1)c1ccco1 | 1.39 µM | > 100 µM | 
COc1ccc(NC(=O)CSC2=NCCN2)cc1 |  | > 100 µM | 
C=CCSc1nnc(-c2ccc([N+](=O)[O-])cc2)o1 | < 0.195 µM | 0.843 µM | 
CCOC(=O)c1cnc(-n2nc(C)cc2C)nc1Nc1ccc(OC)cc1 | 0.641 µM | 1.27 µM | 
CCCCCOc1ccc(C(=O)NCC(=O)NCC(=O)OCC)cc1 | 5.74 µM | 6.53 µM | > 40 µM
CCOC(=O)c1cc(-c2csc(COc3ccccc3Cl)n2)on1 | < 0.195 µM | 3.52 µM | 
COC(=O)c1ccccc1Sc1ncnc2onc(C)c12 | 15.3 µM | 30.7 µM | > 40 µM
O=C(NCCc1ccc(Cl)cc1)C1CCC(CNc2c(N3CCCCC3)c(=O)c2=O)CC1 (centres undefined) | 11.8 µM | 13.4 µM | 
Cc1ccccc1C(=O)N1CCc2cc(-c3nc(NC(=O)Cc4ccc5c(c4)OCO5)sc3C)ccc21 |  |  | > 40 µM
Cc1cc(N2C3CCC2CC(O)(c2ccc(F)cc2)C3)nc(-c2ccccc2)n1 (centres undefined) | 31.6 µM | > 100 µM | > 40 µM
O=C(OCC(=O)c1c[nH]c2ccccc12)c1cc2ccccc2cc1O | 11.3 µM | > 100 µM | > 40 µM
CCOc1ccc(NCc2nnc(SCc3ccc(Cl)cc3)n2-c2ccccc2)cc1 |  |  | > 40 µM
CC1CCN(c2nc(/C=C/c3ccccc3)nc3ccccc23)CC1 | 10.1 µM | 12.8 µM | > 40 µM
Cc1csc(NC(=O)CSc2ccc(-c3ccccn3)nn2)n1 | 5.48 µM | 6.15 µM | > 40 µM
Cc1nc2ccc(NC(=O)N(C(C)C)C(C)C)cc2s1 | 20.2 µM | > 100 µM | 
CCOc1ccc(N/C(C)=C\C(=O)c2ccc3c(c2)OCCO3)cc1 | 5.85 µM | > 100 µM | 

Structure (SMILES) | IC50 | IC90 | CC50
O=C1N=C2N(CCN3CCCCC3)c3ccccc3N2/C1=C\c1ccc([N+](=O)[O-])o1 | 1.56 µM | 1.6 µM | 4.9 µM
COc1ccc(NS(=O)(=O)c2cc(NC(=O)[C@@H](NC(=O)c3ccccc3)C(C)C)ccc2C)cc1 |  |  | 23.3 µM
O=C(O)C1CCCCC1C(=O)Nc1ccc2c(c1)CCC2 (centres undefined) | 73.5 µM | > 100 µM | 
Cc1ccc(NS(=O)(=O)c2cc(NC(=O)c3ccc4c(c3)NC(=O)CS4)ccc2C)c(C)c1 | 11.1 µM | > 100 µM | > 40 µM
CCOC(=O)COc1ccc2c(=O)c(-c3ccc(OC)c(OC)c3)c(C(=O)OCC)oc2c1 | 2.51 µM | 5.68 µM | 
Cc1ccc(NC(=O)COC(=O)CC2CCCC2)cc1Cl |  | > 100 µM | 
O=C1c2cccc3c([N+](=O)[O-])ccc(c23)C(=O)N1Cc1cccnc1 | 2.02 µM | 3.69 µM | 6.25 µM
CCCn1c(NC(=O)C23CC4CC(CC(O)(C4)C2)C3)nc2ccccc21 | 11.1 µM | > 100 µM | > 40 µM
CCCCOC(=O)c1ccc(N=Nc2c(C)c(C#N)c(O)[nH]c2=O)cc1 | < 0.195 µM | > 100 µM | 
O=C(CCCC(=O)OCC(=O)c1cccs1)Nc1ccc(Oc2ccccc2)cc1 | 17.4 µM | > 100 µM | 
Nc1ccc(C(=O)O)c(O)c1 | < 0.195 µM | > 100 µM | 
O=C(Nc1ccc(N2CCOCC2)c(Cl)c1)c1ccc([N+](=O)[O-])o1 | 7.54 µM | 11.3 µM | 3.3 µM
CC[n+]1c(/C=C2\Sc3ccccc3N2C)ccc2cccc(C)c21 | 1.01 µM | 1.4 µM | 2.41 µM
Cc1nc2cc(C(=O)OCC(=O)NC34CC5CC(CC(C5)C3)C4)ccc2n1-c1ccccc1 | 7.9 µM | 12.1 µM | 
CN1CCN(c2ccccc2NC(=O)c2ccc(-c3ccc(Cl)cc3Cl)o2)CC1 | 65.2 µM | 82.8 µM | > 40 µM
O=C(Nc1cc(Oc2ccccc2)cc([N+](=O)[O-])c1)C12CC3CC(C1)CC(n1cnc(Cl)n1)(C3)C2 | 4.19 µM | > 100 µM | > 40 µM
CC(=O)CC1(OC(C)=O)C(=O)N(C)c2ccccc21 (centres undefined) | 5.34 µM | 5.89 µM | 24.3 µM
Clc1ccc(-[n+]2c(-c3cccc(Br)c3)[nH]c3nc4ccccc4nc32)cc1 |  | > 100 µM | > 40 µM
COc1ccc(Nc2nc(-c3ccc4c(c3)NC(=O)CO4)cs2)cc1 | 10 µM | > 100 µM | > 40 µM
CCOC(=O)c1ccc(N/C=C/C(=O)C(C)(C)C)cc1 | 4.61 µM | > 100 µM | 

Structure (SMILES) | IC50 | IC90 | CC50
Cc1ccc(Oc2cc(NC(=O)CCCn3nc([N+](=O)[O-])cc3C)cc([N+](=O)[O-])c2)cc1 | 12.1 µM | 13.6 µM | > 40 µM
Cc1ccc2nc(/N=C(\N)NC(=O)NC3CCCCC3)nc(C)c2c1 | 5.92 µM | 6.73 µM | 25.3 µM
Cc1cccc(CSc2nnc(CCCCCNC(=O)OC(C)(C)C)o2)c1 | 15.3 µM | 21.3 µM | > 40 µM
CCc1cccc2c(C(=O)COC(=O)c3ccc([N+](=O)[O-])s3)c[nH]c12 | < 0.195 µM | 0.99 µM | > 40 µM
CN(C)CCCn1c(=O)n(CCc2ccccc2)c(=O)c2c3c(sc21)CCCCC3 | 11.6 µM | 12.9 µM | 18.1 µM
CC1=Nc2ccccc2/C1=C\c1nc(-c2ccc(C(F)(F)F)cc2)oc1O | 1.71 µM | > 100 µM | > 40 µM
Cc1cc(C)n2c(SCc3ccc(Br)cc3)nnc2n1 |  |  | > 40 µM
CCCn1c(NC(=O)c2ccco2)nc2ccccc21 | 5.87 µM | 18.6 µM | > 40 µM
Cc1nc(SCC(=O)Nc2ccc(OCc3ccccc3)cc2)n[nH]1 | 0.406 µM | > 100 µM | 
O=c1oc2ccccc2nc1/C=C(O)/C=C\c1ccccc1 | 4.33 µM | 13.1 µM | 
c1ccc(Nc2nc(-c3ccccn3)cs2)cc1 | 0.376 µM | 0.854 µM | > 40 µM
O=C(CSCC(=O)N1CCCCC1)Nc1nc(-c2ccc(Cl)s2)cs1 | 44 µM | > 100 µM | 
O=C(CCNc1ccc(Cl)c(C(F)(F)F)c1)c1ccco1 | 49.3 µM | > 100 µM | 
O=C(CSc1nc2ccc(Nc3nc(N4CCOCC4)nc(N4CCOCC4)n3)cc2s1)NCc1ccco1 | 36.5 µM | > 100 µM | > 40 µM
COc1ccc(NC(C#N)c2ccc(OC)cc2)cc1 (centres undefined) |  | > 100 µM | 
CCCCCCCCOC(=O)c1c(CSC(=N)N)n(C)c2cc(Br)c(OC(C)=O)cc12 | 11.4 µM | 15 µM | 
O=c1c2ccccc2nc(-c2ccc(Cl)c(Cl)c2)n1O | 43.8 µM | > 100 µM | > 40 µM
O=[N+]([O-])c1ccc(COc2ccc(-c3[nH]ncc3-c3ccc(Cl)cc3)c(O)c2)cc1 | 23 µM | > 100 µM | > 40 µM
CCOc1ccc(/C=C/C(=O)c2ccccc2)cc1OC |  | > 100 µM | > 40 µM
